Broadly, the Ki is a measure of affinity in units of concentration, obtained from inhibition or displacement.

These results are taken from paper PMC7010297, “How the initiating ribosome copes with ppGpp to translate mRNAs” (PLoS Biology, 2020).

Series [1] deals with mRNA translation (protein synthesis). In words: In vitro translation in pure cell-free system (PURExpress, Lumio labelling). The series is classed as biochemical. How it is done: Fig 5 Permissive ppGpp-mediated inhibition of mRNA translation. (A) Scheme of the translating 70S complex. (B) In vitro translation of mTufA and mInfA derivatives harboring a coding sequence for the Lumio labelling system (Experimental conditions and analysis). […] Synthetized proteins were fluorescently labelled and resolved by 20% SDS-PAGE. The resulting images were analyzed by pixel densitometry using ImageJ [37] to estimate translation efficiencies (TEs). […] (D) Comparison of inhibitory constants for both mRNAs as measured during 30S IC formation (white) or overall translation efficiency (gray). Mean and standard deviations from three measurements are plotted (S1 Data). GTP, guanosine triphosphate; mInfA, InfA mRNA; mTufA, TufA mRNA; TE, translation efficiency.
In order to visualize overall protein synthesis, we used a coupled transcription-translation cell-free system. Reactions were carried out in 10 μL of the purified components from the PURExpress In Vitro Protein Synthesis Kit (E6800S/L, NEB, Ipswich, Massachusetts) with the corresponding templates. These reactions were incubated at 37°C for 2 hours. […] After incubation, sample processing and fluorescent labelling were carried out as described by the Lumio Green Detection Kit (LC6090, ThermoScientific, Waltham, Massachusetts) for in vitro reactions. Finally, 20 μL of labelled samples were loaded into 20% SDS-PAGE gels and visualized under a Blue-light LED transilluminator with orange filter (Cleaver Scientific LTD, Warwickshire, UK). Gel quantification was performed by pixel densitometry analysis using ImageJ software.

A further series deals with 30S IC (Escherichia coli, UniProt P0A705). The settings on record: for T. initiation Average / T. initiation Replicates: Fig 7A. How it is done: Fig 7 SETIs and ppGpp tolerance. (A) Translation initiation efficiency as a function of mRNAs along five steps of transition from NS to S conditions. […] Symbols and error bars represent averages of three replicates and standard deviations, respectively (S1 Data). (C) Comparison of ppGpp tolerance as calculated from the ratio of translation initiation efficiencies found in the presence of 0.2 mM ppGpp over the efficiencies obtained in the absence of the alarmone (S1 Data). […] All 30S IC components are as in Fig 1. Dashed line indicates the average tolerance of all mRNAs lacking the SETI element.
The transition towards stringent response entails changes in the composition of all guanosine nucleotides. […] To inquire how the 30S IC responds during the transition from non-stringent (NS) to stringent (S) guanosine nucleotide conditions in the cell, we measured translation initiation along 5 combinations of guanosine nucleotides by thermophoresis, from NS to S conditions (Fig 7A).
The 30S complexes were reconstituted using pure subunits, IFs, tRNAi, mRNA, and nucleotides. The 30S subunits were reactivated by incubation in TAKM20 buffer (as TAKM3.5 but with 20 mM MgCl2) for 1 hour at 37°C prior to use. Generally, 30S ICs were formed by incubation at 37°C for 30 minutes in TAKM7 using 1 μM 30S subunits, 4 μM mRNA, 2 μM IF1, 1 μM IF2, 1.5 μM IF3, 0.5 μM Bpy-Met-tRNA^fMet, and 0.2 mM guanosine nucleotides, unless otherwise stated in the Results or figure captions. Ligand titrations were prepared using serial dilutions using 1:1 mixing of complexes containing the highest concentration of the titrant with complexes lacking only the ligand under investigation. The number of reactions were set up to cover a wide range of concentrations.
MST was measured on 10-μL reactions using standard capillaries (MO-K022, NanoTemper Technologies, Munich, Germany) on a Monolith NT.115 (NanoTemper Technologies, Munich, Germany) at monochromatic LED with power input of 30% and IR laser power of 40%. The local temperature perturbation was expected to be less than 3°C. All measurements were performed at room temperature (22 ± 2°C). Three to four replicates were measured for each investigated reaction to calculate mean and standard deviation. […] KD were calculated using a hyperbolic or quadratic function using Graphpad Prism 6.0 (GraphPad, San Diego, California) or software provided by NanoTemper.

Series [2] deals with mRNA translation (protein synthesis). Description: In vitro translation in pure cell-free system (PURExpress, Lumio labelling). The series is classed as biochemical. The following applies: 2 mM ppGpp; Fig 6G.

“And” between values parts separate entries of the source, which are not always exact repeats. Equal entries are not always repeated. Where two headings read alike, the source gives them in different places.

Take `Nc1nc2c(ncn2[C@@H]2O[C@H](COP(=O)(O)OP(=O)(O)O)[C@@H](OP(=O)(O)OP(=O)(O)O)[C@H]2O)c(=O)[nH]1` [ppGpp]: the “P.D. Average” value in series [1] (mInfA, Log [ppGpp] 1.00) stood at 2.85 a.u.x10^4; in series [1] (mInfA, Log [ppGpp] 2.40), 2.28 a.u.x10^4; in series [1] (mInfA, Log [ppGpp] 2.70) it was 1.67 a.u.x10^4; in series [1] (mInfA, Log [ppGpp] 3.00), 0.00 a.u.x10^4; in series [1] (mInfA, Log [ppGpp] 3.30) it was 0.00 a.u.x10^4; in series [1] (mInfA, Log [ppGpp] 3.60), 0.00 a.u.x10^4. The “P.D. Average” value in series [1] (mTufA, Log [ppGpp] 1.00) is recorded as 6.41 a.u.x10^4; in series [1] (mTufA, Log [ppGpp] 2.40) it was 5.17 a.u.x10^4; in series [1] (mTufA, Log [ppGpp] 2.70), 4.76 a.u.x10^4; in series [1] (mTufA, Log [ppGpp] 3.00), 3.38 a.u.x10^4; in series [1] (mTufA, Log [ppGpp] 3.30), 2.72 a.u.x10^4; in series [1] (mTufA, Log [ppGpp] 3.60), 1.21 a.u.x10^4. For the same molecule, the “P.D. Replicates (a.u.x10^4)” value in series [1] (mInfA, Log [ppGpp] 1.00) was 2.78 a.u.x10^4 and 2.92 a.u.x10^4 and 2.86 a.u.x10^4; in series [1] (mInfA, Log [ppGpp] 2.40) it was 2.16 a.u.x10^4 and 2.34 a.u.x10^4 and 2.33 a.u.x10^4; in series [1] (mInfA, Log [ppGpp] 2.70) it was 1.54 a.u.x10^4 and 1.80 a.u.x10^4 and 1.68 a.u.x10^4; in series [1] (mInfA, Log [ppGpp] 3.00), 0.00 a.u.x10^4; in series [1] (mInfA, Log [ppGpp] 3.30), 0.00 a.u.x10^4; in series [1] (mInfA, Log [ppGpp] 3.60), 0.00 a.u.x10^4. The “P.D. Replicates (a.u.x10^4)” value was 6.33 a.u.x10^4 and 6.50 a.u.x10^4 and 6.41 a.u.x10^4 in series [1] (mTufA, Log [ppGpp] 1.00); 5.12 a.u.x10^4 and 5.25 a.u.x10^4 and 5.15 a.u.x10^4 in series [1] (mTufA, Log [ppGpp] 2.40); 4.72 a.u.x10^4 and 4.86 a.u.x10^4 and 4.70 a.u.x10^4 in series [1] (mTufA, Log [ppGpp] 2.70); 3.31 a.u.x10^4 and 3.47 a.u.x10^4 and 3.35 a.u.x10^4 in series [1] (mTufA, Log [ppGpp] 3.00); 2.68 a.u.x10^4 and 2.81 a.u.x10^4 and 2.66 a.u.x10^4 in series [1] (mTufA, Log [ppGpp] 3.30); 1.18 a.u.x10^4 and 1.24 a.u.x10^4 and 1.21 a.u.x10^4 in series [1] (mTufA, Log [ppGpp] 3.60). Besides, the inhibition constant Ki in series [1] (mRNA mInfA, read-out: Translation Efficiency Ki (μM), replicates) is 0.816 µM and 0.72 µM and 0.838 µM; in series [1] (mRNA mInfA, read-out: Translation Efficiency Ki Average) it was 0.791 µM; in series [1] (mRNA mTufA, read-out: Translation Efficiency Ki (μM), replicates), 2.23 µM and 2.32 µM and 2.09 µM; in series [1] (mRNA mTufA, read-out: Translation Efficiency Ki Average) it was 2.21 µM.

B1: mTufA: TufA mRNA with full-length 5′ UTR, in vitro transcribed, codes for EF-Tu (nucleic acid)
chain: GGUUCUAUCGCCUUUAAAGAAGGCUUUAAGAAAGCGAAACCAGUUCUGCUUGAGCCGAUCAUGAAGGUUGAAGUAGAAACUCCGGAAGAGAACACCGGUGACGUUAUCGGUGACUUGAGCCGUCGUCGUGGUAUGCUCAAAGGUCAGGAAUCUGAAGUUACUGGCGUUAAGAUCCACGCUGAAGUACCGCUGUCUGAAAUGUUCGGAUACGCAACUCAGCUGCGUUCUCUGACCAAAGGUCGUGCAUCAUACACUAUGGAAUUCCUGAAGUAUGAUGAAGCGCCGAGUAACGUUGCUCAGGCCGUAAUUGAAGCCCGUGGUAAAUAAGCCUAAGGGUUAAUACCAAAGUCCCGUGCUCUCUCCUGAAGGGGAGAGCACUAUAGUAAGGAAUAUAGCCGUGUCUAAAGAAAAAUUUGAACG
For the molecule B1, the “Translation Avg” value in series [1] (2 mM ppGpp, Fig 6G) was 0.27 a.u; in series [1] (No ppGpp, Fig 6G), 0.83 a.u. In addition, the “Translation Replicate” value is 0.83 a.u in series [1] (No ppGpp, Fig 6G) and 0.27 a.u in series [2]. In addition, the “translation higher than mInfA” value in series [1] (in the absence of ppGpp) came out at 3 fold. Moreover, the “T. initiation Average” value came to 81.23% in the series with 30S IC (NS to S 1); 75.89% with 30S IC (NS to S 2); 60.14% with 30S IC (NS to S 3); 45.96% with 30S IC (NS to S 4); 23.01% in the series with 30S IC (NS to S 5). Besides, the “T. initiation Replicates” value in the series with 30S IC (NS to S 1) is 79.55% and 82.59% and 81.55%; with 30S IC (NS to S 2), 72.98% and 77.43% and 77.26%; with 30S IC (NS to S 3), 59.08% and 60.37% and 60.97%; with 30S IC (NS to S 4), 44.86% and 46.36% and 46.65%; with 30S IC (NS to S 5), 22.61% and 23.62% and 22.79%. Moreover, in the series with 30S IC (S: 1 mM ppGpp, 0.25 mM pppGpp, 0.14 mM GTP, 0.05 mM GDP), the “translation initiation efficiency (30S IC formation retained) at S conditions” value was 25%.
